Holding throughout (assay type): biochemical
One experiment concerns the target T1, JAK2 (Homo sapiens, UniProt O60674).
T1 construct: made in house; host or cells: SF9 insect cells (baculovirus)
The experiment in a line: JAK2 inhibition (Table 4). Conditions: read-out: JAK2 Ki.

For the next experiment, the target named is T2, JAK3 (Homo sapiens, UniProt P52333).
T2 construct: made in house; host or cells: SF9 insect cells (baculovirus)
The experiment in a line: JAK3 inhibition (Table 4). Conditions: read-out: JAK3 Ki.

The next experiment addresses T3, TYK2 (Homo sapiens, UniProt P29597).
T3 construct: made in house; host or cells: SF9 insect cells (baculovirus)
T3 sequence (P29597 873-1187): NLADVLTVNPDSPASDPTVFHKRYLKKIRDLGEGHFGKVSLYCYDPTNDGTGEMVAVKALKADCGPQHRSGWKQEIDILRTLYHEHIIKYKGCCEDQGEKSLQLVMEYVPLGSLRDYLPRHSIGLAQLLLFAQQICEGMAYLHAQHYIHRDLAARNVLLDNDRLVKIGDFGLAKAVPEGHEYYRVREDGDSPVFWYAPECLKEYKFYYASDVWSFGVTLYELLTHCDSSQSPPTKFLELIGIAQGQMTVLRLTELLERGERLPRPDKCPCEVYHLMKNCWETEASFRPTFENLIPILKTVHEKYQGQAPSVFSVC
The experiment in a line: TYK2 inhibition (Table 4).

T1 sequence (O60674 812-1132): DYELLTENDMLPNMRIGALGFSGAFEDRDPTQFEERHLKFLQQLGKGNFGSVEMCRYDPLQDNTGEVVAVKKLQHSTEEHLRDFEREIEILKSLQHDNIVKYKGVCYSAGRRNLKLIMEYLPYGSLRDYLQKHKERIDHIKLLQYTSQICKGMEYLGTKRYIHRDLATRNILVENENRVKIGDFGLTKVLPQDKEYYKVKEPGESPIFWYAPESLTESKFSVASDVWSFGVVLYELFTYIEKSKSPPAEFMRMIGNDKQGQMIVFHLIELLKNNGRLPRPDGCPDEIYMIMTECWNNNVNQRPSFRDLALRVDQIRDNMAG
T2 sequence (P52333 783-1124): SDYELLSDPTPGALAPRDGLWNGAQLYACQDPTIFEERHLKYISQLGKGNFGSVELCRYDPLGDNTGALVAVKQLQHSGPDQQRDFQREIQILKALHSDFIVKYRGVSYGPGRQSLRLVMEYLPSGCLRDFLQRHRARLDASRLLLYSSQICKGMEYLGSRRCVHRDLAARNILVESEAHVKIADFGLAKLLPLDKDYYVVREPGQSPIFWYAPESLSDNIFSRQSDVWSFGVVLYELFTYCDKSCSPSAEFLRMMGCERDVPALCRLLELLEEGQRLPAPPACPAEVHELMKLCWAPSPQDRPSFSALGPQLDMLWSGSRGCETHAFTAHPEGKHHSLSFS

In general, Ki refers to a dissociation constant, usually derived from enzyme kinetics or from competition with a known ligand. In the case of `CC(C)(C)OC(=O)N[C@H]1CC[C@@H](n2cnc3cnc4[nH]ccc4c32)C1` [Example 136, [(1S,3R)-3-(6H-1,2,3,5,6-Tetraaza-as-indacen-1-yl)-cyclopentyl]-carbamic acid tert-butyl ester], the Ki was 18.3 nM on JAK2, 291 nM at JAK3 and 147 nM at TYK2.

With `COC(=O)N(C)[C@H]1CC[C@H](n2cnc3cnc4[nH]ccc4c32)CC1` [Example 143, Trans Methyl-[4-(6H-1,2,3,5,6-tetraaza-as-indacen-1-yl)-cyclohexyl]-carbamic acid methyl ester], the figures for the Ki at JAK2, on JAK3 and at TYK2 were 7.03 nM, 182 nM and 51.2 nM, respectively.

Turning to `FC(F)(F)CN1CCC(n2cnc3cnc4[nH]ccc4c32)CC1` [Example 175, 1-[1-(2,2,2-Trifluoro-ethyl)-piperidin-4-yl]-1,6-dihydro-1,2,3,5,6-tetraaza-as-indacene], the inhibitory constant (Ki) at JAK2 worked out at 4.6 nM; on JAK3 it was 38.1 nM; on TYK2, 19.2 nM.

Regarding `CS(=O)(=O)NCc1nc2cnc3[nH]ccc3c2n1C1CCCCC1` [Example 200, N-(1-Cyclohexyl-1,6-dihydro-1,2,3,5,6-tetraaza-as-indacen-2-ylmethyl)-methanesulfonamide], the Ki at JAK2 came out at 45.4 nM; on JAK3, 75.1 nM; on TYK2 it was 19.3 nM.

On to `CS(=O)(=O)NCc1nc2cnc3[nH]ccc3c2n1C1CCN(Cc2ccccc2)CC1` [Example 202, N-[1-(1-Benzyl-piperidin-4-yl)-1,6-dihydro-1,2,3,5,6-tetraaza-as-indacen-2-ylmethyl]-methanesulfonamide], for which the Ki on JAK2 was found to be 44.6 nM; on JAK3 it was 60.3 nM; at TYK2 it was 831 nM.

On to `CS(=O)(=O)NCc1nc2cnc3[nH]ccc3c2n1C1CCNCC1` [Example 206, N-(1-Piperidin-4-yl-1,6-dihydro-1,2,3,5,6-tetraaza-as-indacen-2-ylmethyl)-methanesulfonamide], for which the Ki on JAK2 was 812 nM; at JAK3, 3050 nM; at TYK2, 565 nM.

As to `CS(=O)(=O)NCc1nc2cnc3[nH]ccc3c2n1C1CCN(CCC#N)CC1` [Example 208, N-{1-[1-(2-Cyano-ethyl)-piperidin-4-yl]-1,6-dihydro-1,2,3,5,6-tetraaza-as-indacen-2-ylmethyl}-methanesulfonamide], the values for the Ki on JAK2, on JAK3 and at TYK2 were 43.1 nM, 171 nM and 151 nM, respectively.

For `N#Cc1cccc(CN[C@H]2CC[C@H](n3cnc4cnc5[nH]ccc5c43)CC2)c1` [Example 219, 3-{[4-(6H-1,3,5,6-Tetraaza-as-indacen-1-yl)-cyclohexylamino]-methyl}-benzonitrile], the Ki at JAK2 came out at 11.2 nM; at JAK3 it was 89 nM; at TYK2, 37.3 nM.

Regarding `CN1CCC[C@@H]1C(=O)N1CCC(n2cnc3cnc4[nH]ccc4c32)CC1` [Example 252, ((R)-1-Methyl-pyrrolidin-2-yl)-[4-(6H-1,3,5,6-tetraaza-as-indacen-1-yl)-piperidin-1-yl]-methanone], the Ki was 285 nM at JAK2, 1280 nM at JAK3 and 973 nM at TYK2.

For the molecule `N#CCCN[C@H]1CC[C@H](n2cnc3cnc4[nH]ccc4c32)CC1` [Example 275, 3-[4-(6H-1,3,5,6-Tetraaza-as-indacen-1-yl)-cyclohexylamino]-propionitrile], the Ki on JAK2 was determined as 11.5 nM; at JAK3, 47.4 nM; on TYK2, 36.4 nM.

`CC(C)(C)OC(=O)N[C@H]1CC[C@@H](n2cnc3cnc4[nH]ccc4c32)CC1` [Example 288, [4-(6H-1,3,5,6-Tetraaza-as-indacen-1-yl)-cyclohexyl]-carbamic acid tert-butyl ester]: the Ki on JAK2 was 11.9 nM; on JAK3 it was 206 nM; on TYK2 it was 110 nM.

On to `N[C@H]1CC[C@@H](n2cnc3cnc4[nH]ccc4c32)CC1` [Example 289, 4-(6H-1,3,5,6-Tetraaza-as-indacen-1-yl)-cyclohexylamine], for which the Ki was 80.2 nM at JAK2, 79.5 nM on JAK3 and 107 nM on TYK2.

For the molecule `COC(=O)N[C@H]1CC[C@H](n2cnc3cnc4[nH]ccc4c32)CC1` [Example 311, [4-(6H-1,3,5,6-Tetraaza-as-indacen-1-yl)-cyclohexyl]-carbamic acid methyl ester], the figures for the Ki at JAK2, on JAK3 and at TYK2 were 14.1 nM, 91.6 nM and 59.8 nM, respectively.

On to `CC1(n2cnc3cnc4[nH]ccc4c32)CCNCC1` [Example 318, 1-(4-Methyl-piperidin-4-yl)-1,6-dihydro-1,3,5,6-tetraaza-as-indacene], for which the Ki was 1100 nM on JAK2, 976 nM on JAK3 and 1900 nM at TYK2.

As for `N#CCCN[C@H]1CC[C@@H](n2cnc3cnc4[nH]ccc4c32)CC1` [Example 319, 3-[4-(6H-1,3,5,6-Tetraaza-as-indacen-1-yl)-cyclohexylamino]-propionitrile], the results for the Ki at JAK2, on JAK3 and on TYK2 were 31.2 nM, 82.9 nM and 77.8 nM, respectively.

As to `CS(=O)(=O)N[C@H]1CC[C@@H](n2cnc3cnc4[nH]ccc4c32)CC1` [Example 321, N-[4-(6H-1,3,5,6-Tetraaza-as-indacen-1-yl)-cyclohexyl]-methanesulfonamide], the values for the Ki at JAK2, at JAK3 and on TYK2 were 9.47 nM, 56.1 nM and 38.5 nM, respectively.

In the case of `CC1(n2cnc3cnc4[nH]ccc4c32)CCN(Cc2cncnc2)CC1` [Example 322, 1-(4-Methyl-1-pyrimidin-5-ylmethyl-piperidin-4-yl)-1,6-dihydro-1,3,5,6-tetraaza-as-indacene], the inhibition constant (Ki) was found to be 25.5 nM on JAK2, 84.8 nM at JAK3 and 426 nM on TYK2.

For `CC1(n2cnc3cnc4[nH]ccc4c32)CCN(CCC#N)CC1` [Example 330, 3-[4-Methyl-4-(6H-1,3,5,6-tetraaza-as-indacen-1-yl)-piperidin-1-yl]-propionitrile], the inhibition constant Ki on JAK2 came to 122 nM; at JAK3, 269 nM; on TYK2, 271 nM.

`CC1(n2cnc3cnc4[nH]ccc4c32)CCN(S(C)(=O)=O)CC1` [Example 332, 1-(1-Methanesulfonyl-4-methyl-piperidin-4-yl)-1,6-dihydro-1,3,5,6-tetraaza-as-indacene]: the Ki on JAK2 is 7.95 nM; at JAK3 it was 71.4 nM; at TYK2, 31.1 nM.

On to `Cn1ccnc1CCc1nc2cnc3[nH]ccc3c2n1C1CCN(CCC#N)CC1` [Example 411, 3-(4-{2-[2-(1-Methyl-1H-imidazol-2-yl)-ethyl]-6H-1,3,5,6-tetraaza-as-indacen-1-yl}-piperidin-1-yl)-propionitrile], for which the Ki on JAK2 came out at 64.4 nM; at JAK3 it was 154 nM; at TYK2, 422 nM.

Take `CCS(=O)(=O)NCCc1nc2cnc3[nH]ccc3c2n1C1CCCCC1` [Example 512, Ethanesulfonic acid [2-(1-cyclohexyl-1,6-dihydro-1,3,5,6-tetraaza-as-indacen-2-yl)-ethyl]-amide]: the Ki was determined as 28.3 nM on JAK2, 61.7 nM on JAK3 and 22 nM at TYK2.

As to `CS(=O)(=O)NCCc1nc2cnc3[nH]ccc3c2n1C1CCCCC1` [Example 514, N-[2-(1-Cyclohexyl-1,6-dihydro-1,3,5,6-tetraaza-as-indacen-2-yl)-ethyl]-methanesulfonamide], the Ki amounted to 24.3 nM on JAK2, 28.2 nM at JAK3 and 15.8 nM on TYK2.

On to `CC(C)C(=O)N[C@H]1CC[C@H](n2cnc3cnc4[nH]ccc4c32)CC1` [Example 571, trans N-[4-(6H-1,3,5,6-Tetraaza-as-indacen-1-yl)-cyclohexyl]-isobutyramide], for which the Ki at JAK2 is 21.1 nM; on JAK3, 197 nM; on TYK2, 101 nM.

Take `c1cc2c(ncc3ncn([C@H]4CC[C@H](NCC5CC5)CC4)c32)[nH]1` [Example 574, trans Cyclopropylmethyl-[4-(6H-1,3,5,6-tetraaza-as-indacen-1-yl)-cyclohexyl]-amine]: the Ki was 54.6 nM at JAK2, 232 nM on JAK3 and 125 nM on TYK2.

Regarding `c1cc2c(ncc3ncn([C@H]4CC[C@H](N5CCOCC5)CC4)c32)[nH]1` [Example 594, Trans 1-(4-Morpholin-4-yl-cyclohexyl)-1,6-dihydro-1,2,3,5,6-tetraaza-as-indacene], the Ki was found to be 22.7 nM on JAK2, 334 nM on JAK3 and 76.6 nM at TYK2.

As for `N#C[C@@H]1CCN([C@H]2CC[C@H](n3cnc4cnc5[nH]ccc5c43)CC2)C1` [Example 596, Trans (R)-1-[4-(6H-1,2,3,5,6-tetraaza-as-indacen-1-yl)-cyclohexyl]-pyrrolidine-3-carbonitrile], the results for the Ki on JAK2, on JAK3 and at TYK2 were 5.51 nM, 67.4 nM and 17.4 nM, respectively.

For the molecule `Cc1nc2cnc3[nH]ccc3c2n1[C@H]1CC[C@H](C(C)(C)O)CC1` [Example 632, 2-[4-(2-Methyl-6H-1,2,3,5,6-tetraaza-as-indacen-1-yl)-cyclohexyl]-propan-2-ol], the Ki on JAK2 was 3.5 nM; at JAK3 it was 36.8 nM; at TYK2 it was 13.7 nM.

As to `COC[C@H]1CC[C@H](n2c(CNS(C)(=O)=O)nc3cnc4[nH]ccc4c32)CC1` [Example 638, Trans N-[1-(4-methoxymethyl-cyclohexyl)-1,6-dihydro-1,2,3,5,6-tetraaza-as-indacen-2-ylmethyl]-methanesulfonamide], the Ki came to 77.7 nM on JAK2, 150 nM on JAK3 and 70.7 nM at TYK2.

The values are drawn from patent publication US8461328B2, “Tricyclic heterocyclic compounds, compositions and methods of use thereof” (Genentech, Inc., priority 2010, dated 2013).
